Columns and labels:
[1] = system: cancerous cells of the lung; details: incubation of a cell sample for 6-24 hours with 200 μg/ml TCPP; cited from earlier work
[2] = Maximum solubility of TCPP in saline or blood; assay type: physicochemical
[3] = system: sputum cells (dysplastic, pre-cancerous and cancerous cells); experiment: Glass slide assay for detection of pre-cancerous and cancerous cells with TCPP (fluorescence microscopy of sputum monolayer slides vs PAP-stain cytomorphology); assay type: cell-based, human

SMILES: O=C(O)c1ccc(-c2c3nc(c(-c4ccc(C(=O)O)cc4)c4ccc([nH]4)c(-c4ccc(C(=O)O)cc4)c4nc(c(-c5ccc(C(=O)O)cc5)c5ccc2[nH]5)C=C4)C=C3)cc1 [TCPP]
- Cellular uptake and localisation of TCPP [1]: bound to the perinuclear membrane and mitochondria of neoplastic cells
- Maximum solubility in saline or blood [2]: about 100 μg/mL
- Number of Samples with Cells having Numerical Description by TCPP Fluorescence Microscopy/Number of Samples with Cell Description by Cytmorphology ([3]; 1 = Large nucleus or nuclei, low to medium fluorescence, Adenicarcinoma, squamous cell and small cell carcinoma (n = 10)): 6/10
- Number of Samples with Cells having Numerical Description by TCPP Fluorescence Microscopy/Number of Samples with Cell Description by Cytmorphology ([3]; 1 = Large nucleus or nuclei, low to medium fluorescence, Carcinoma in situ (n = 11)): 10/11
- Number of Samples with Cells having Numerical Description by TCPP Fluorescence Microscopy/Number of Samples with Cell Description by Cytmorphology ([3]; 1 = Large nucleus or nuclei, low to medium fluorescence, Mild dysplasia (n = 12)): 12/12
- Number of Samples with Cells having Numerical Description by TCPP Fluorescence Microscopy/Number of Samples with Cell Description by Cytmorphology ([3]; 1 = Large nucleus or nuclei, low to medium fluorescence, Moderate dysplasia (n = 9)): 9/9
- Number of Samples with Cells having Numerical Description by TCPP Fluorescence Microscopy/Number of Samples with Cell Description by Cytmorphology ([3]; 1 = Large nucleus or nuclei, low to medium fluorescence, Negative or metaplastic (n = 10)): 3/10
- Number of Samples with Cells having Numerical Description by TCPP Fluorescence Microscopy/Number of Samples with Cell Description by Cytmorphology ([3]; 1 = Large nucleus or nuclei, low to medium fluorescence, Severe dysplasia (n = 8)): 7/8
- Number of Samples with Cells having Numerical Description by TCPP Fluorescence Microscopy/Number of Samples with Cell Description by Cytmorphology ([3]; 2 = Symmetrical binuclear cells, medium fluorescence, Adenicarcinoma, squamous cell and small cell carcinoma (n = 10)): 2/10
- Number of Samples with Cells having Numerical Description by TCPP Fluorescence Microscopy/Number of Samples with Cell Description by Cytmorphology ([3]; 2 = Symmetrical binuclear cells, medium fluorescence, Carcinoma in situ (n = 11)): 3/11
- Number of Samples with Cells having Numerical Description by TCPP Fluorescence Microscopy/Number of Samples with Cell Description by Cytmorphology ([3]; 2 = Symmetrical binuclear cells, medium fluorescence, Mild dysplasia (n = 12)): 5/12
- Number of Samples with Cells having Numerical Description by TCPP Fluorescence Microscopy/Number of Samples with Cell Description by Cytmorphology ([3]; 2 = Symmetrical binuclear cells, medium fluorescence, Moderate dysplasia (n = 9)): 5/9
- Number of Samples with Cells having Numerical Description by TCPP Fluorescence Microscopy/Number of Samples with Cell Description by Cytmorphology ([3]; 2 = Symmetrical binuclear cells, medium fluorescence, Negative or metaplastic (n = 10)): 0/10
- Number of Samples with Cells having Numerical Description by TCPP Fluorescence Microscopy/Number of Samples with Cell Description by Cytmorphology ([3]; 2 = Symmetrical binuclear cells, medium fluorescence, Severe dysplasia (n = 8)): 3/8
- Number of Samples with Cells having Numerical Description by TCPP Fluorescence Microscopy/Number of Samples with Cell Description by Cytmorphology ([3]; 3 = Small oval cells, medium to high fluorescence, Adenicarcinoma, squamous cell and small cell carcinoma (n = 10)): 6/10
- Number of Samples with Cells having Numerical Description by TCPP Fluorescence Microscopy/Number of Samples with Cell Description by Cytmorphology ([3]; 3 = Small oval cells, medium to high fluorescence, Carcinoma in situ (n = 11)): 6/11
- Number of Samples with Cells having Numerical Description by TCPP Fluorescence Microscopy/Number of Samples with Cell Description by Cytmorphology ([3]; 3 = Small oval cells, medium to high fluorescence, Mild dysplasia (n = 12)): 4/12
- Number of Samples with Cells having Numerical Description by TCPP Fluorescence Microscopy/Number of Samples with Cell Description by Cytmorphology ([3]; 3 = Small oval cells, medium to high fluorescence, Moderate dysplasia (n = 9)): 4/9
- Number of Samples with Cells having Numerical Description by TCPP Fluorescence Microscopy/Number of Samples with Cell Description by Cytmorphology ([3]; 3 = Small oval cells, medium to high fluorescence, Negative or metaplastic (n = 10)): 0/10
- Number of Samples with Cells having Numerical Description by TCPP Fluorescence Microscopy/Number of Samples with Cell Description by Cytmorphology ([3]; 3 = Small oval cells, medium to high fluorescence, Severe dysplasia (n = 8)): 2/8
- Number of Samples with Cells having Numerical Description by TCPP Fluorescence Microscopy/Number of Samples with Cell Description by Cytmorphology ([3]; 4 = Small round cells, low fluorescence, Adenicarcinoma, squamous cell and small cell carcinoma (n = 10)): 2/10
- Number of Samples with Cells having Numerical Description by TCPP Fluorescence Microscopy/Number of Samples with Cell Description by Cytmorphology ([3]; 4 = Small round cells, low fluorescence, Carcinoma in situ (n = 11)): 0/11
- Number of Samples with Cells having Numerical Description by TCPP Fluorescence Microscopy/Number of Samples with Cell Description by Cytmorphology ([3]; 4 = Small round cells, low fluorescence, Mild dysplasia (n = 12)): 0/12
- Number of Samples with Cells having Numerical Description by TCPP Fluorescence Microscopy/Number of Samples with Cell Description by Cytmorphology ([3]; 4 = Small round cells, low fluorescence, Moderate dysplasia (n = 9)): 0/9
- Number of Samples with Cells having Numerical Description by TCPP Fluorescence Microscopy/Number of Samples with Cell Description by Cytmorphology ([3]; 4 = Small round cells, low fluorescence, Negative or metaplastic (n = 10)): 0/10
- Number of Samples with Cells having Numerical Description by TCPP Fluorescence Microscopy/Number of Samples with Cell Description by Cytmorphology ([3]; 4 = Small round cells, low fluorescence, Severe dysplasia (n = 8)): 0/8
- Number of Samples with Cells having Numerical Description by TCPP Fluorescence Microscopy/Number of Samples with Cell Description by Cytmorphology ([3]; 5 = Multi-nucleated cells, medium fluorescence, Adenicarcinoma, squamous cell and small cell carcinoma (n = 10)): 7/10
- Number of Samples with Cells having Numerical Description by TCPP Fluorescence Microscopy/Number of Samples with Cell Description by Cytmorphology ([3]; 5 = Multi-nucleated cells, medium fluorescence, Carcinoma in situ (n = 11)): 9/11
- Number of Samples with Cells having Numerical Description by TCPP Fluorescence Microscopy/Number of Samples with Cell Description by Cytmorphology ([3]; 5 = Multi-nucleated cells, medium fluorescence, Mild dysplasia (n = 12)): 0/12
- Number of Samples with Cells having Numerical Description by TCPP Fluorescence Microscopy/Number of Samples with Cell Description by Cytmorphology ([3]; 5 = Multi-nucleated cells, medium fluorescence, Moderate dysplasia (n = 9)): 3/9
- Number of Samples with Cells having Numerical Description by TCPP Fluorescence Microscopy/Number of Samples with Cell Description by Cytmorphology ([3]; 5 = Multi-nucleated cells, medium fluorescence, Negative or metaplastic (n = 10)): 0/10
- Number of Samples with Cells having Numerical Description by TCPP Fluorescence Microscopy/Number of Samples with Cell Description by Cytmorphology ([3]; 5 = Multi-nucleated cells, medium fluorescence, Severe dysplasia (n = 8)): 6/8
- Number of Samples with Cells having Numerical Description by TCPP Fluorescence Microscopy/Number of Samples with Cell Description by Cytmorphology ([3]; 6 = Irregular anisoid cells, low to medium fluorescence, Adenicarcinoma, squamous cell and small cell carcinoma (n = 10)): 7/10
- Number of Samples with Cells having Numerical Description by TCPP Fluorescence Microscopy/Number of Samples with Cell Description by Cytmorphology ([3]; 6 = Irregular anisoid cells, low to medium fluorescence, Carcinoma in situ (n = 11)): 10/11
- Number of Samples with Cells having Numerical Description by TCPP Fluorescence Microscopy/Number of Samples with Cell Description by Cytmorphology ([3]; 6 = Irregular anisoid cells, low to medium fluorescence, Mild dysplasia (n = 12)): 0/12
- Number of Samples with Cells having Numerical Description by TCPP Fluorescence Microscopy/Number of Samples with Cell Description by Cytmorphology ([3]; 6 = Irregular anisoid cells, low to medium fluorescence, Moderate dysplasia (n = 9)): 1/9
- Number of Samples with Cells having Numerical Description by TCPP Fluorescence Microscopy/Number of Samples with Cell Description by Cytmorphology ([3]; 6 = Irregular anisoid cells, low to medium fluorescence, Negative or metaplastic (n = 10)): 0/10
- Number of Samples with Cells having Numerical Description by TCPP Fluorescence Microscopy/Number of Samples with Cell Description by Cytmorphology ([3]; 6 = Irregular anisoid cells, low to medium fluorescence, Severe dysplasia (n = 8)): 1/8
- Number of Samples with Cells having Numerical Description by TCPP Fluorescence Microscopy/Number of Samples with Cell Description by Cytmorphology ([3]; 7 = Cellular clusters, medium to high fluorescence, Adenicarcinoma, squamous cell and small cell carcinoma (n = 10)): 3/10
- Number of Samples with Cells having Numerical Description by TCPP Fluorescence Microscopy/Number of Samples with Cell Description by Cytmorphology ([3]; 7 = Cellular clusters, medium to high fluorescence, Carcinoma in situ (n = 11)): 1/11
- Number of Samples with Cells having Numerical Description by TCPP Fluorescence Microscopy/Number of Samples with Cell Description by Cytmorphology ([3]; 7 = Cellular clusters, medium to high fluorescence, Mild dysplasia (n = 12)): 0/12
- Number of Samples with Cells having Numerical Description by TCPP Fluorescence Microscopy/Number of Samples with Cell Description by Cytmorphology ([3]; 7 = Cellular clusters, medium to high fluorescence, Moderate dysplasia (n = 9)): 1/9
- Number of Samples with Cells having Numerical Description by TCPP Fluorescence Microscopy/Number of Samples with Cell Description by Cytmorphology ([3]; 7 = Cellular clusters, medium to high fluorescence, Negative or metaplastic (n = 10)): 0/10
- Number of Samples with Cells having Numerical Description by TCPP Fluorescence Microscopy/Number of Samples with Cell Description by Cytmorphology ([3]; 7 = Cellular clusters, medium to high fluorescence, Severe dysplasia (n = 8)): 0/8
- Number of Samples with Cells having Numerical Description by TCPP Fluorescence Microscopy/Number of Samples with Cell Description by Cytmorphology ([3]; 8 = Degenerated single cells, medium to high fluorescence, Adenicarcinoma, squamous cell and small cell carcinoma (n = 10)): 7/10
- Number of Samples with Cells having Numerical Description by TCPP Fluorescence Microscopy/Number of Samples with Cell Description by Cytmorphology ([3]; 8 = Degenerated single cells, medium to high fluorescence, Carcinoma in situ (n = 11)): 4/11
- Number of Samples with Cells having Numerical Description by TCPP Fluorescence Microscopy/Number of Samples with Cell Description by Cytmorphology ([3]; 8 = Degenerated single cells, medium to high fluorescence, Mild dysplasia (n = 12)): 0/12
- Number of Samples with Cells having Numerical Description by TCPP Fluorescence Microscopy/Number of Samples with Cell Description by Cytmorphology ([3]; 8 = Degenerated single cells, medium to high fluorescence, Moderate dysplasia (n = 9)): 0/9
- Number of Samples with Cells having Numerical Description by TCPP Fluorescence Microscopy/Number of Samples with Cell Description by Cytmorphology ([3]; 8 = Degenerated single cells, medium to high fluorescence, Negative or metaplastic (n = 10)): 0/10
- Number of Samples with Cells having Numerical Description by TCPP Fluorescence Microscopy/Number of Samples with Cell Description by Cytmorphology ([3]; 8 = Degenerated single cells, medium to high fluorescence, Severe dysplasia (n = 8)): 0/8
- Number of Samples with Cells having Numerical Description by TCPP Fluorescence Microscopy/Number of Samples with Cell Description by Cytmorphology ([3]; 9 = Degenerated cell clusters, medium to high fluorescence, Adenicarcinoma, squamous cell and small cell carcinoma (n = 10)): 4/10
- Number of Samples with Cells having Numerical Description by TCPP Fluorescence Microscopy/Number of Samples with Cell Description by Cytmorphology ([3]; 9 = Degenerated cell clusters, medium to high fluorescence, Carcinoma in situ (n = 11)): 1/11
- Number of Samples with Cells having Numerical Description by TCPP Fluorescence Microscopy/Number of Samples with Cell Description by Cytmorphology ([3]; 9 = Degenerated cell clusters, medium to high fluorescence, Mild dysplasia (n = 12)): 0/12

From patent publication US9417241B2, “5, 10, 15, 20-tetrakis (carboxyphenyl) porphine (TCPP) and kit for use with detecting cancer” (bioAffinity Technologies, Inc., priority 2000, dated 2016)
